Measured values taken from US11180462B2, “Microbiocidal oxadiazole derivatives” (SYNGENTA PARTICIPATIONS AG, priority 2015, dated 2021).

Key:
[1] = system: Phakopsora Pachyrhizi; test: Fungicidal activity against Phakopsora pachyrhizi / soybean / leaf disc preventative (Asian soybean rust); format: in vivo; details: foliar, 200 ppm in the applied formulation, soybean leaf disks, compared to untreated control leaf disks, read-out: disease control
Method in brief: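 Scored 12 to 14 days post-application as percent control relative to untreated check discs, rust spores were sprayed under the disc one day after compound treatment. Incubation: 20°C, 75% rh, first 24–36 h in darkness, then 12 h daily light; discs kept on water agar.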

[2] = system: Puccinia recondita f. Sp. Tritici; test: Fungicidal activity against Puccinia recondita f. sp. tritici / wheat / leaf disc curative (brown rust); format: in vivo; details: foliar, 24 h, 200 ppm in the applied formulation, wheat leaf segments, curative (applied 1 day after inoculation), compared to untreated control leaf disks, read-out: disease control
Method in brief: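 Curative test on wheat leaf segments (cv. Kanzler) on agar, inoculated with spore suspension and held dark at 19° C, 75% RH; formulated compound in water applied 1 day after inoculation. Incubated at 19° C, 75% RH, 12 h light/12 h dark; percent disease control versus untreated scored 6 to 8 days after application.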

[3] = system: Glomerella lagenarium (Colletotrichum lagenarium); test: Fungicidal activity against Glomerella lagenarium (Colletotrichum lagenarium) liquid culture / cucumber / preventative (anthracnose); format: cell-based; details: Colletotrichum orbiculare; 20 ppm in the applied formulation; liquid culture (PDB), growth inhibition measured photometrically after 3 to 4 days; compared to untreated control; read-out: disease control
Method in brief: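 Percent activity against the untreated check was derived from photometric growth measurements made 2 to 7 days after conidia in potato dextrose broth were combined with compound at 20 ppm. Cultures were kept dark at 24 °C and 96% humidity.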

[4] = system: Puccinia recondita f. Sp. Tritici; test: Fungicidal activity against Puccinia recondita f. sp. tritici / wheat / leaf disc preventative (brown rust); format: in vivo; details: foliar, 200 ppm in the applied formulation, wheat leaf segments, preventative, compared to untreated control leaf disks, read-out: disease control
Method in brief: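 Percent disease control relative to untreated check segments is scored once disease develops, 7 to 9 days after application. Wheat cv. Kanzler segments receive compound spray (200 ppm in formulation) one day before spore inoculation, then sit at 19° C. and 75% rh under 12 h light/12 h dark.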

CNC(=O)N(Cc1ccc(-c2noc(C(F)(F)F)n2)c(F)c1)OC [Compound 3.44, 1-[[3-fluoro-4-[5-(trifluoromethyl)-1,2,4-oxadiazol-3-yl]phenyl]methyl]-1-methoxy-3-methyl-urea]
≥ 80%: pest or weed control at 200 ppm [1] | pest or weed control at 200 ppm [2] | inhibition of growth at 20 ppm [3] | pest or weed control at 200 ppm [4]

CCC(COC)C(=O)N(CCO)Cc1ccc(-c2noc(C(F)(F)F)n2)cc1 (stereo not drawn) [Compound 1.723, N-(2-hydroxyethyl)-2-(methoxymethyl)-N-[[4-[5-(trifluoromethyl)-1,2,4-oxadiazol-3-yl]phenyl]methyl]-butanamide]
≥ 80%: pest or weed control at 200 ppm [1] | pest or weed control at 200 ppm [2] | inhibition of growth at 20 ppm [3] | pest or weed control at 200 ppm [4]

C#CCN(Cc1ccc(-c2noc(C(F)(F)F)n2)cc1)C(=O)CC1CC1 [Compound 1.167, 2-cyclopropyl-N-prop-2-ynyl-N-[[4-[5-(trifluoromethyl)-1,2,4-oxadiazol-3-yl]phenyl]methyl]-acetamide]
≥ 80%: pest or weed control at 200 ppm [1] | pest or weed control at 200 ppm [2] | inhibition of growth at 20 ppm [3] | pest or weed control at 200 ppm [4]

COCCN(Cc1ccc(-c2noc(C(F)(F)F)n2)cc1)C(=O)CC1CC1 [Compound 1.331, 2-cyclopropyl-N-(2-methoxyethyl)-N-[[4-[5-(trifluoromethyl)-1,2,4-oxadiazol-3-yl]phenyl]methyl]-acetamide]
≥ 80%: pest or weed control at 200 ppm [1] | pest or weed control at 200 ppm [2] | inhibition of growth at 20 ppm [3] | pest or weed control at 200 ppm [4]

CON(Cc1ccc(-c2noc(C(F)(F)F)n2)cc1)C(=O)CC(F)(F)F [Compound 1.36, 3,3,3-trifluoro-N-methoxy-N-[[4-[5-(trifluoromethyl)-1,2,4-oxadiazol-3-yl]phenyl]methyl]-propanamide]
≥ 80%: pest or weed control at 200 ppm [1] | pest or weed control at 200 ppm [2] | inhibition of growth at 20 ppm [3] | pest or weed control at 200 ppm [4]

CCON(Cc1ccc(-c2noc(C(F)(F)F)n2)cc1)C(=O)C(C)C [Compound 1.614, N-ethoxy-2-methyl-N-[[4-[5-(trifluoromethyl)-1,2,4-oxadiazol-3-yl]phenyl]methyl]-propanamide]
≥ 80%: pest or weed control at 200 ppm [1] | pest or weed control at 200 ppm [2] | inhibition of growth at 20 ppm [3] | pest or weed control at 200 ppm [4]

CC1(C(=O)N(Cc2ccc(-c3noc(C(F)(F)F)n3)cc2)CC(F)(F)F)CC1 [Compound 1.696, 1-methyl-N-(2,2,2-trifluoroethyl)-N-[[4-[5-(trifluoromethyl)-1,2,4-oxadiazol-3-yl]phenyl]methyl]-cyclopropane-carboxamide]
≥ 80%: pest or weed control at 200 ppm [1] | pest or weed control at 200 ppm [2] | inhibition of growth at 20 ppm [3] | pest or weed control at 200 ppm [4]

CCON(Cc1ccc(-c2noc(C(F)(F)F)n2)cc1)C(=O)C1CC1(F)F (stereo not drawn) [Compound 1.615, N-ethoxy-2,2-difluoro-N-[[4-[5-(trifluoromethyl)-1,2,4-oxadiazol-3-yl]phenyl]methyl]-cyclopropane-carboxamide]
≥ 80%: pest or weed control at 200 ppm [1] | pest or weed control at 200 ppm [2] | inhibition of growth at 20 ppm [3] | pest or weed control at 200 ppm [4]

CCN(Cc1ccc(-c2noc(C(F)(F)F)n2)cc1)C(=O)C1(C)COC1 [Compound 1.508, N-ethyl-3-methyl-N-[[4-[5-(trifluoromethyl)-1,2,4-oxadiazol-3-yl]phenyl]methyl]-oxetane-3-carboxamide]
≥ 80%: pest or weed control at 200 ppm [1] | pest or weed control at 200 ppm [2] | inhibition of growth at 20 ppm [3] | pest or weed control at 200 ppm [4]

O=C(CC1CC1)N(O)Cc1ccc(-c2noc(C(F)(F)F)n2)cc1 [Compound 1.774, 2-cyclopropyl-N-hydroxy-N-[[4-[5-(trifluoromethyl)-1,2,4-oxadiazol-3-yl]phenyl]methyl]-acetamide]
≥ 80%: pest or weed control at 200 ppm [1] | pest or weed control at 200 ppm [2] | inhibition of growth at 20 ppm [3] | pest or weed control at 200 ppm [4]

C#CCN(Cc1ccc(-c2noc(C(F)(F)F)n2)cc1)C(=O)CCC(F)(F)F [Compound 1.169, 4,4,4-trifluoro-N-prop-2-ynyl-N-[[4-[5-(trifluoromethyl)-1,2,4-oxadiazol-3-yl]phenyl]methyl]-butanamide]
≥ 80%: pest or weed control at 200 ppm [1] | pest or weed control at 200 ppm [2] | inhibition of growth at 20 ppm [3] | pest or weed control at 200 ppm [4]

O=C(C1CCOC1)N(Cc1ccc(-c2noc(C(F)(F)F)n2)cc1)C1CC1 (stereo not drawn) [Compound 1.103, N-cyclopropyl-N-[[4-[5-(trifluoromethyl)-1,2,4-oxadiazol-3-yl]phenyl]methyl]-tetrahydrofuran-3-carboxamide]
≥ 80%: pest or weed control at 200 ppm [1] | pest or weed control at 200 ppm [2] | inhibition of growth at 20 ppm [3] | pest or weed control at 200 ppm [4]

CC1(C(=O)N(O)Cc2ccc(-c3noc(C(F)(F)F)n3)cc2)COC1 [Compound 1.766, N-hyd roxy-3-methyl-N-[[4-[5-(trifluoromethyl)-1,2,4-oxadiazol-3-yl]phenyl]methyl]-oxetane-3-c arboxamide]
≥ 80%: pest or weed control at 200 ppm [1] | pest or weed control at 200 ppm [2] | inhibition of growth at 20 ppm [3] | pest or weed control at 200 ppm [4]

C=CCN(Cc1ccc(-c2noc(C(F)(F)F)n2)cc1)C(=O)C(C)CC (stereo not drawn) [Compound 1.486, N-allyl-2-methyl-N-[[4-[5-(trifluoromethyl)-1,2,4-oxadiazol-3-yl]phenyl]methyl]-butanamide]
≥ 80%: pest or weed control at 200 ppm [1] | pest or weed control at 200 ppm [2] | inhibition of growth at 20 ppm [3] | pest or weed control at 200 ppm [4]

COCCN(Cc1ccc(-c2noc(C(F)(F)F)n2)cc1)C(=O)C1(C)COC1 [Compound 1.351, N-(2-methoxyethyl)-3-methyl-N-[[4-[5-(trifluoromethyl)-1,2,4-oxadiazol-3-yl]phenyl]methyl]-oxetane-3-carboxamide]
≥ 80%: pest or weed control at 200 ppm [1] | pest or weed control at 200 ppm [2] | inhibition of growth at 20 ppm [3] | pest or weed control at 200 ppm [4]

CN(Cc1ccc(-c2noc(C(F)(F)F)n2)cc1)C(=O)C1CC1(F)F (stereo not drawn) [Compound 1.523, 2,2-difluoro-N-methyl-N-[[4-[5-(trifluoromethyl)-1,2,4-oxadiazol-3-yl]phenyl]methyl]-cyclopropane-carboxamide]
≥ 80%: pest or weed control at 200 ppm [1] | pest or weed control at 200 ppm [2] | inhibition of growth at 20 ppm [3] | pest or weed control at 200 ppm [4]

C#CCN(Cc1ccc(-c2noc(C(F)(F)F)n2)cc1)C(=O)C1CC1C (stereo not drawn) [Compound 1.181, 2-methyl-N-prop-2-ynyl-N-[[4-[5-(trifluoromethyl)-1,2,4-oxadiazol-3-yl]phenyl]methyl]-cyclopropane-carboxamide]
≥ 80%: pest or weed control at 200 ppm [1] | pest or weed control at 200 ppm [2] | inhibition of growth at 20 ppm [3] | pest or weed control at 200 ppm [4]

CON(Cc1ccc(-c2noc(C(F)(F)F)n2)cc1)C(=O)N1CCCC1 [Compound 3.60, N-methoxy-N-[[4-[5-(trifluoromethyl)-1,2,4-oxadiazol-3-yl]phenyl]methyl]-pyrrolidine-1-carboxamide]
≥ 80%: pest or weed control at 200 ppm [1] | pest or weed control at 200 ppm [2] | inhibition of growth at 20 ppm [3] | pest or weed control at 200 ppm [4]
